Measured values: patent publication US20150064221A1, “COMPOUNDS HAVING IMMUNOMUDULATOR ACTIVITY” (priority 2012, published 2015)
“Also recorded” adds a separate entry of the source.

How the values were obtained:
[1] = test system: various asynchronously growing cell lines (HeLa, Jurkat, RD, PBMCs, U937); experiment: Cell viability (MTT assay, P1/Annexin V staining); type: cell-based; design: viability: dose or concentration left out as unconfirmed
Protocol: (A) Cell viability was measured via the MTT assay after 48 hours of treatment. (B) TNF-α levels were measured 48 hours post LPS (5 μg/ml) stimulation. (C) CD4 T cells were stimulated with either ConA (10 μg/ml) or anti-CD3/CD28 beads (10 μg/ml), and proliferation was measured via 3H-thymidine incorporation.
VGX-1027 was tested for whether its effects were cell-type-specific.

PBMCs = experiment: Transcriptional profile analysis (microarray) of LPS-stimulated PBMCs; type: cell-based, human; design: mean/difference of means: scale not given here; conditions: for mean/difference of means: VGX-treated vs LPS stimulated group
Protocol: Transcriptional profile analysis: PBMCs from three individual healthy donors, obtained from the University of Pennsylvania School of Medicine, Immunology Clinical Core. Cells (5×10̂6) were treated with either LPS (5 μg/ml), LPS (5 μg/ml)+VGX-1027 (10 uM) or PBS for 48 hours and subsequently, RNA was extracted using the RNeasy kit (Qiagen) following manufacturer's instructions.
RNA was hybridized to the Human Gene 1.0 ST array (Affymetrix). Microarray data were analyzed using the web-based utility Expression Profiler (http://www.ebi.ac.uk/expressionprofiler/). Data normalization was achieved by performing logarithmic transformation of all intensities followed by gene mean-centering. Multiple array probes were collapsed by averaging the intensities. Principal component analysis (PCA) was conducted on all genes to assign the general variability in the data to a reduced set of variables. Gene expression differences were assessed by means of Student's t test, and genes with a p<0.01 were considered differentially expressed. Selected genes were subjected to K-means clustering, using Euclidean distance as correlation measurement, and gene ontology (GO) analysis was performed using the Database for Annotation, Visualization and Integrated Discovery (DAVID) tool. Hierarchical clustering of selected genes was performed using Euclidean distance measurements as similarity comparison.

O=C(O)CC1CC(c2ccccc2)=NO1 (centres unmarked) [VGX-1027, 3-phenyl-4,5-dihydro-5-isoxazoleacetic acid]
viability ([1]; 48 hours, MTT): Greater than 80%
toxicity to cell lines ([1]; MTT assay and P1/Annexin V staining, up to 100 mM): did not cause toxicity; also recorded: not toxic
genes in cluster strongly downregulated upon treatment (PBMCs; K-means clustering): 525
genes modulated relative to LPS (PBMCs; LPS 5 μg/ml + 10 uM, 48 hours): 895
mean/difference of means (PBMCs; gene 7912155, most down-regulated genes): 0.111
mean/difference of means (PBMCs; gene 7923965, most down-regulated genes): 0.439
mean/difference of means (PBMCs; gene 7945084, most down-regulated genes): 0.165
mean/difference of means (PBMCs; gene 7997245, most up-regulated genes): −0.0599
mean/difference of means (PBMCs; gene 8007069, most down-regulated genes): 0.074
mean/difference of means (PBMCs; gene 8017100, most down-regulated genes): 0.108
mean/difference of means (PBMCs; gene 8028281, most down-regulated genes): 0.0791
mean/difference of means (PBMCs; gene 8043441, most up-regulated genes): −0.406
mean/difference of means (PBMCs; gene 8077169, most down-regulated genes): 0.153
mean/difference of means (PBMCs; gene 8094946, most down-regulated genes): 0.07
mean/difference of means (PBMCs; gene 8102775, most down-regulated genes): 0.101
mean/difference of means (PBMCs; gene 8104068, most down-regulated genes): 0.118
mean/difference of means (PBMCs; gene 8134024, most down-regulated genes): 0.0796
mean/difference of means (PBMCs; gene 8135943, most down-regulated genes): 0.406
mean/difference of means (PBMCs; gene 8136446, most up-regulated genes): −0.146
mean/difference of means (PBMCs; gene 8140035, most down-regulated genes): 0.388
mean/difference of means (PBMCs; gene 8150101, most up-regulated genes): −0.237
mean/difference of means (PBMCs; gene 8153835, most down-regulated genes): 0.0829
mean/difference of means (PBMCs; gene 8160555, most down-regulated genes): 0.171
mean/difference of means (PBMCs; gene ADAM19, most up-regulated genes): −0.176
mean/difference of means (PBMCs; gene AIM2, most up-regulated genes): −0.221
mean/difference of means (PBMCs; gene ALKBH5, most down-regulated genes): 0.0698
mean/difference of means (PBMCs; gene APOBEC3G, most up-regulated genes): −0.239
mean/difference of means (PBMCs; gene ATXN10, most up-regulated genes): −0.131
mean/difference of means (PBMCs; gene BLNK, most up-regulated genes): −0.398
mean/difference of means (PBMCs; gene BOLA3, most up-regulated genes): −0.118
mean/difference of means (PBMCs; gene C1orf2, most down-regulated genes): 0.106
mean/difference of means (PBMCs; gene C11orf53, most down-regulated genes): 0.184
mean/difference of means (PBMCs; gene C20orf173, most down-regulated genes): 0.14
mean/difference of means (PBMCs; gene CABYR, most down-regulated genes): 0.135
mean/difference of means (PBMCs; gene CCKBR, most down-regulated genes): 0.0588
mean/difference of means (PBMCs; gene CCL8, most up-regulated genes): −1.08
mean/difference of means (PBMCs; gene CD22, most up-regulated genes): −0.453
mean/difference of means (PBMCs; gene CD38, most up-regulated genes): −0.468
mean/difference of means (PBMCs; gene CHML, most up-regulated genes): −0.24
mean/difference of means (PBMCs; gene CIZ1, most down-regulated genes): 0.0416
mean/difference of means (PBMCs; gene CLIC5, most up-regulated genes): −0.175
mean/difference of means (PBMCs; gene CLU, most up-regulated genes): −0.218
mean/difference of means (PBMCs; gene CPA3, most up-regulated genes): −0.669
mean/difference of means (PBMCs; gene CYTH1, most down-regulated genes): 0.0452
mean/difference of means (PBMCs; gene DNAH1, most up-regulated genes): −0.134
mean/difference of means (PBMCs; gene EDN2, most down-regulated genes): 0.0391
mean/difference of means (PBMCs; gene EGR4, most down-regulated genes): 0.129
mean/difference of means (PBMCs; gene EOMES, most up-regulated genes): −0.0887
mean/difference of means (PBMCs; gene ETNK2, most down-regulated genes): 0.278
mean/difference of means (PBMCs; gene FAM108C1, most down-regulated genes): 0.0544
mean/difference of means (PBMCs; gene FAS, most up-regulated genes): −0.12
mean/difference of means (PBMCs; gene FCRL1, most up-regulated genes): −0.301
mean/difference of means (PBMCs; gene FNBP1L, most down-regulated genes): 0.203
mean/difference of means (PBMCs; gene FUK, most down-regulated genes): 0.0866
mean/difference of means (PBMCs; gene GATAD1, most down-regulated genes): 0.0258
mean/difference of means (PBMCs; gene GEN1, most up-regulated genes): −0.368
mean/difference of means (PBMCs; gene GGTLC2, most down-regulated genes): 0.179
mean/difference of means (PBMCs; gene HAGH, most down-regulated genes): 0.0712
mean/difference of means (PBMCs; gene HISPPD2A, most down-regulated genes): 0.0217
mean/difference of means (PBMCs; gene HSPA12B, most down-regulated genes): 0.0281
mean/difference of means (PBMCs; gene KARS, most up-regulated genes): −0.126
mean/difference of means (PBMCs; gene KCTD10, most up-regulated genes): −0.0613
mean/difference of means (PBMCs; gene KLF3, most down-regulated genes): 0.115
mean/difference of means (PBMCs; gene KLF10, most up-regulated genes): −0.11
mean/difference of means (PBMCs; gene KLHDC4, most up-regulated genes): −0.0727
mean/difference of means (PBMCs; gene LARS2, most up-regulated genes): −0.176
mean/difference of means (PBMCs; gene LCP2, most up-regulated genes): −0.0536
mean/difference of means (PBMCs; gene LRRC8D, most down-regulated genes): 0.139
mean/difference of means (PBMCs; gene LYRM4, most up-regulated genes): −0.294
mean/difference of means (PBMCs; gene MAGOH, most up-regulated genes): −0.1
mean/difference of means (PBMCs; gene MOV10L1, most down-regulated genes): 0.0753
mean/difference of means (PBMCs; gene MRPL15, most up-regulated genes): −0.147
mean/difference of means (PBMCs; gene MRPS35, most up-regulated genes): −0.164
mean/difference of means (PBMCs; gene NDUFA4, most up-regulated genes): −0.0638
mean/difference of means (PBMCs; gene NLN, most up-regulated genes): −0.217
mean/difference of means (PBMCs; gene OAS3, most up-regulated genes): −0.134
mean/difference of means (PBMCs; gene OFCC1, most down-regulated genes): 0.0379
mean/difference of means (PBMCs; gene PAH, most down-regulated genes): 0.0906
mean/difference of means (PBMCs; gene PAK1IP1, most up-regulated genes): −0.271
mean/difference of means (PBMCs; gene PGDS, most up-regulated genes): −0.708
mean/difference of means (PBMCs; gene RGS1, most up-regulated genes): −0.294
mean/difference of means (PBMCs; gene RPE, most up-regulated genes): −0.116
mean/difference of means (PBMCs; gene SERPINI1, most down-regulated genes): 0.187
mean/difference of means (PBMCs; gene SH3PXD2A, most down-regulated genes): 0.0515
mean/difference of means (PBMCs; gene SLC38A2, most down-regulated genes): 0.0979
mean/difference of means (PBMCs; gene SNORA24, most up-regulated genes): −0.212
mean/difference of means (PBMCs; gene SNRNP70, most down-regulated genes): 0.0617
mean/difference of means (PBMCs; gene SNX6, most up-regulated genes): −0.0607
mean/difference of means (PBMCs; gene SPAG7, most up-regulated genes): −0.149
mean/difference of means (PBMCs; gene SRFBP1, most up-regulated genes): −0.124
mean/difference of means (PBMCs; gene TCL1A, most up-regulated genes): −0.442
mean/difference of means (PBMCs; gene TNFRSF17, most up-regulated genes): −0.295
mean/difference of means (PBMCs; gene TRABD, most down-regulated genes): 0.0439
mean/difference of means (PBMCs; gene TSN, most up-regulated genes): −0.105
mean/difference of means (PBMCs; gene TUSC3, most down-regulated genes): 0.0955
mean/difference of means (PBMCs; gene TXNRD1, most down-regulated genes): 0.117
mean/difference of means (PBMCs; gene UAP1L1, most down-regulated genes): 0.0398
mean/difference of means (PBMCs; gene VIPR1, most down-regulated genes): 0.123
mean/difference of means (PBMCs; gene WARS2, most up-regulated genes): −0.246
mean/difference of means (PBMCs; gene WDR70, most up-regulated genes): −0.0908
mean/difference of means (PBMCs; gene YPEL2, most down-regulated genes): 0.183
mean/difference of means (PBMCs; gene ZNF596, most up-regulated genes): −0.432
mean/difference of means (PBMCs; gene ZNF746, most down-regulated genes): 0.0386
mean/difference of means (PBMCs; gene hCG_2024410, most up-regulated genes): −0.102
